Measured values reported in paper PMC12645191, “Dicarboxylate and dicarboxylic acid appended supramolecular self-associating amphiphiles as antimicrobial agents against high priority bacterial pathogens” (Organic & Biomolecular Chemistry, 2025).
Values joined by “and” are separate entries in the source; they are usually repeats but may differ in a detail not shown here. Identical values can stand only once. Marks after values point to notes of the source that are not given here.

Columns and labels:
[1] = tensiometry: critical aggregate concentration (CAC) and surface tension; assay type: physicochemical; conditions: for Surface tension at CAC: H2O/5.0 % EtOH
Description: As the (Q) ^1H NMR spectroscopy experiments conducted at 5.6 mM in a D2O 5.0% EtOH solution confirmed the presence of higher-order self-associated structures with solid-like properties, concentration dependent surface tension measurements, obtained through tensiometry, were used to calculate critical aggregate concentration (CAC). Here the CAC is defined as the point at which an increase in SSA concentration no longer decreases surface tension but instead results in the formation of higher-order self-associated structures.

[2] = tested on: all Gram-positive bacteria tested; test: inhibition of bacterial growth, span over the Gram-positive panel; assay type: cell-based, S. aureus, E. faecalis, E. faecium; conditions: SSA 5.0 mM, 20 hours; read-out: inhibition against all Gram-positive bacteria tested (span)
Description: With the self-associative properties of 1–10 established, the antimicrobial activity of these SSAs were determined against a panel of clinically relevant, high-priority pathogens including: P. aeruginosa PAO1; Klebsiella pneumonia (K. pneumoniae) M6; E. coli NCTC 12923; Acinetobacter baumannii (A. baumannii) ATCC 17978; S. aureus ATCC 9144; Enterococcus faecalis (E. faecalis) NCTC 775; and Enterococcus faecium (E. faecium) NCTC 12204. […] However, it should be noted that the SSA stock solution was prepared in a H2O 5% EtOH solution, to ensure that the SSA aggregates formed were in line with those characterised within the scope of the SSA self-association studies.
Section 3: Biological methods
These methods were taken directly from UK Health and Security Office (UKHSA) standard […]
Preparation of Luria Broth media (LB): Yeast extract (5.0 g), tryptone (10.0 g) and sodium chloride (10.0 g) were dissolved in dH₂O (1.0 L) then divided into bottles and autoclaved.
Preparation of Luria Broth (LB) agar plates: Agar (6.0 g) was added to LB (400 mL) and autoclaved. […]
Preparation of 96 well microplate for MIC50: The 1:100 cell suspension (150 µL) was dispensed into individual wells under sterile conditions. […] The plates were sealed using parafilm, then incubated at 37 °C in a microplate reader for 20 hours. […]

Caco-2 cell line = test: bi-directional permeability in Caco-2 cell line; assay type: in vitro ADME, human
Description: Metabolic stability was assessed in mouse and rat liver microsomes. Microsomes are subcellular fractions of hepatocytes and contain CYP450s, the predominant enzymes involved in first-pass metabolism.[66] […] A plasma protein binding assay was performed to assess the extent of compound binding to plasma proteins. This is key as only unbound compound is free to distribute and exert a pharmacological effect. […] To assess the potential for this sub-class of SSAs to be developed as drugs for oral administration, Caco-2 permeability assays were also performed, as a cellular model indicative of human intestinal permeability. […]
Sample analysis was by electrospray ionisation. […]
Bi-directional Permeability in Caco-2 Cell Line:
The bi-directional permeability in Caco-2 cell lines was determined by seeding cells onto an HTS Transwell plate. Cells were cultivated for 14-18 days in a cell culture incubator at 37 °C, 5 % CO2, 95 % relative humidity. Cell culture medium was replaced every other day. To assess monolayer integrity the transepithelial electrical resistance (TEER) across the monolayer was measured using Millicell Epithelial volt-ohm meter prior to assay and Lucifer yellow (LY) fluorescence measurement post-assay.
Test and control compounds were prepared in DMSO and diluted in Hank’s Balanced Saline […]
Solution (HBSS, pH 7.4) to a final concentration of 5 or 10 µM. Compound was added to the […]
donor compartment of the transwell plate for both apical to basolateral (A>B) and basolateral […]
to apical (B>A) measurements, with blank HBSS being added to the receiver compartment.
The transwell plate was then incubated at 37 °C, 5 % CO2 for 2 hours.

[3] = Caco-2, 5 or 10 µM, HBSS pH 7.4, 2 hours

O=C(O)CC[C@H](NC(=O)Nc1ccc(C(F)(F)F)cc1)C(=O)O [SSA 1]
CAC ([1]; H2O 5.0% EtOH, 298 K): 19.23 mM and 19 mM | ST at CAC ([1]; H2O 5.0% EtOH, 298 K): 39 mN m^−1 | Surface tension at CAC [1]: 38.90 mN/m

O=C(O)CC[C@H](NC(=O)Nc1ccc(C(F)(F)F)cc1)C(=O)O [SSA 2]
inhibition at 5000 µM [2]: 22 to 80% | Efflux Ratio (Caco-2 cell line; Caco-2): 1.71 | Recovery (%) AP-BL (Caco-2 cell line; Caco-2): 99.71% | Recovery (%) BL-AP (Caco-2 cell line; Caco-2): 80.26% | Papp (A-B) (Caco-2 cell line; [3]): 0.14 10-6, cm/s | Papp (B-A) (Caco-2 cell line; [3]): 0.24 10-6, cm/s | CAC ([1]; H2O 5.0% EtOH, 298 K): 19.84 mM and 20 mM | ST at CAC ([1]; H2O 5.0% EtOH, 298 K): 37 mN m^−1 | Surface tension at CAC [1]: 37.13 mN/m

O=C(O)CC[C@@H](NC(=O)Nc1ccc(C(F)(F)F)cc1)C(=O)O [SSA 3]
CAC ([1]; H2O 5.0% EtOH, 298 K, listed as 3): 17.46 mM and 20 mM | Surface tension at CAC ([1]; listed as 3): 38.73 mN/m

O=C(O)CC[C@H](NC(=O)Nc1ccc(Br)cc1)C(=O)O [SSA 9]
CAC (footnote in place of a value) ([1]; H2O 5.0% EtOH, 298 K): ^c (CAC is >100 mM) | ST at the limit of solubility or 100 mM, whichever concentration is lower ([1]; H2O 5.0% EtOH, 298 K): 54 ^d mN m^−1 | Surface tension at CAC ([1]; listed as 9): 54.44 mN/m
